The values below come from PMC10398685 (ACS Omega, 2023).

Read-outs that look alike come from different tables or passages of the source.

Data set [1] addresses SARS-CoV-2 nsp14 7-N MTase (Severe acute respiratory syndrome coronavirus 2, UniProt P0DTD1). Briefly: biochemical. The settings on record: Echo MS assay, 20 nM nsp14, 4 μM SAM, 4 μM GpppA, duplicates.
Data set [2] is described as follows: in vitro. Conditions: human.
A short description of data set [3]: in vitro. The settings on record: African green monkey.
In data set [4] the test system is SARS-CoV-2. Briefly: microbe, parasite or virus in culture. The format is cell-based. Conditions: Severe acute respiratory syndrome coronavirus 2, 72 h; Calu-3 cells, MOI~0.03, 3 days incubation, CPE by XTT; read-out: EC50 (anti-SARS-CoV-2 activity).
Data set [5] concerns SARS-CoV-2. Briefly: microbe, parasite or virus in culture. The class given is cell-based. The settings on record: Severe acute respiratory syndrome coronavirus 2, Vero C1008, 72 h; VeroE6 cells, MOI~0.03, 3 days incubation, CPE by XTT; read-out: EC50 (anti-SARS-CoV-2 activity).
Data set [6] is described as follows: Cytotoxicity (XTT) in Vero E6 cells. The settings on record: African green monkey.
The nature of data set [7]: Cytotoxicity (XTT) in Calu-3 cells. The settings on record: human.
The conditions of data set [8]: in the same cell type; cited from earlier work.

In the case of `COc1ccc(S(=O)(=O)N(C)C[C@H]2O[C@@H](n3cnc4c(N)ncnc43)[C@H](O)[C@@H]2O)cc1C#N` [Compound 3b], inhibition in data set [1] was half-maximal at 0.128 ± 0.0144 µM (IC50).

`Nc1ncnc2c1c(C#Cc1cnc3ccccc3c1)cn2[C@@H]1O[C@H](CSCC[C@H](N)C(=O)O)[C@@H](O)[C@H]1O` [TO507, reference compound]: the CC50 at 3 days in “in vitro [2]” and in the data set “in vitro [3]” was more than 100 µM in each case. The EC50 in the data set with SARS-CoV-2 [4] and in the data set on SARS-CoV-2 [5] was more than 100 µM throughout. The IC50 in data set [1] turned out to be 0.068 ± 0.0121 µM.

On to `CCN(C[C@H]1O[C@@H](n2cc(C#Cc3ccncc3)c3c(N)ncnc32)[C@H](O)[C@@H]1O)S(=O)(=O)c1ccc(OC)c(C#N)c1` [Compound 12n], for which the CC50 at 3 days in “in vitro [2]” and in the data set “in vitro [3]” was more than 100 µM throughout. The EC50 with SARS-CoV-2 [4] and in the data set with SARS-CoV-2 [5] was more than 100 µM each time. This compound registered a 50% inhibitory concentration (IC50) in data set [1] of 0.041 ± 0.0071 µM.

On to `CCN(C[C@H]1O[C@@H](n2cc(C#Cc3cncnc3)c3c(N)ncnc32)[C@H](O)[C@@H]1O)S(=O)(=O)c1ccc(OC)c(C#N)c1` [Compound 12m], for which the CC50 at 3 days in the data set “in vitro [2]” and in “in vitro [3]” was more than 100 µM in each case. Besides, the EC50 in the data set with SARS-CoV-2 [4] and in the data set with SARS-CoV-2 [5] was more than 100 µM throughout. This compound also had a 50% inhibitory concentration (IC50) in data set [1] of 0.051 ± 0.0062 µM.

`COc1ccc(S(=O)(=O)N(C[C@H]2O[C@@H](n3cnc4c(N)ncnc43)[C@H](O)[C@@H]2O)C(C)C)cc1C#N` [Compound 3c] displayed an IC50 in data set [1] of 0.624 ± 0.0891 µM.

For the compound `CCN(C[C@H]1O[C@@H](n2cc(C#Cc3c[nH]c(=O)nc3N)c3c(N)ncnc32)[C@H](O)[C@@H]1O)S(=O)(=O)c1ccc(OC)c(C#N)c1` [Compound 12k], the CC50 at 3 days in “in vitro [2]” and in “in vitro [3]” was more than 100 µM in each case. In addition, the 50% effective concentration (EC50) in the data set with SARS-CoV-2 [4] and with SARS-CoV-2 [5] was more than 100 µM throughout. Also, 0.088 ± 0.0112 µM corresponded to half-maximal inhibition in data set [1] (IC50).

Regarding `COc1ccc(S(=O)(=O)N(C[C@H]2O[C@@H](n3cnc4c(N)ncnc43)[C@H](O)[C@@H]2O)C2CCCC2)cc1C#N` [Compound 3d], the midpoint of inhibition in data set [1], the IC50, lay at 2.38 ± 0.278 µM.

On to `CCN(C[C@H]1O[C@@H](n2cc(C#Cc3ccc(O)nc3)c3c(N)ncnc32)[C@H](O)[C@@H]1O)S(=O)(=O)c1ccc(OC)c(C#N)c1` [Compound 12f], for which the CC50 at 3 days in the data set “in vitro [2]” and in “in vitro [3]” was more than 100 µM each time. The EC50 in the data set on SARS-CoV-2 [4] and in the data set with SARS-CoV-2 [5] was more than 100 µM in each case. Also, the 50% inhibitory concentration (IC50) in data set [1] is 0.065 ± 0.0092 µM.

Turning to `CCC(CC)COC(=O)[C@H](C)N[P@](=O)(OC[C@H]1O[C@@](C#N)(c2ccc3c(N)ncnn23)[C@H](O)[C@@H]1O)Oc1ccccc1` [Remdesivir, reference compound], the values for the concentration giving a half-maximal response (EC50) in the data set on SARS-CoV-2 [4] and in the data set on SARS-CoV-2 [5] were 0.26 µM and 1.2 µM, respectively. For the same compound, the CC50 at 3 days in data set [6] and in data set [7] was more than 50 µM in each case.

For `CCN(C[C@H]1O[C@@H](n2cc(C#Cc3cnc(N)nc3)c3c(N)ncnc32)[C@H](O)[C@@H]1O)S(=O)(=O)c1ccc(OC)c(C#N)c1` [Compound 12i], the CC50 at 3 days in “in vitro [2]” and in “in vitro [3]” was more than 100 µM each time. The EC50 with SARS-CoV-2 [4] and in the data set with SARS-CoV-2 [5] was more than 100 µM each time. In data set [1], this compound yielded an IC50 of 0.038 ± 0.0042 µM.

Take `CCN(C[C@H]1O[C@@H](n2cc(C#Cc3c[nH]c(=O)[nH]c3=O)c3c(N)ncnc32)[C@H](O)[C@@H]1O)S(=O)(=O)c1ccc(OC)c(C#N)c1` [Compound 12j]: the CC50 at 3 days in the data set “in vitro [2]” and in the data set “in vitro [3]” was more than 100 µM in each case. The concentration giving a half-maximal response (EC50) with SARS-CoV-2 [4] and in the data set on SARS-CoV-2 [5] was more than 100 µM throughout. The same compound returned a concentration for half-maximal inhibition (IC50) in data set [1] of 0.07 ± 0.0081 µM.

As to `CCN(C[C@H]1O[C@@H](n2cc(C#Cc3ccccc3)c3c(N)ncnc32)[C@H](O)[C@@H]1O)S(=O)(=O)c1ccc(OC)c(C#N)c1` [Compound 12c], the CC50 at 3 days in the data set “in vitro [2]” and in the data set “in vitro [3]” was more than 100 µM in each case. Besides, the concentration giving a half-maximal response (EC50) in the data set with SARS-CoV-2 [4] and with SARS-CoV-2 [5] was more than 100 µM in each case. Moreover, the concentration for half-maximal inhibition (IC50) in data set [1] amounted to 0.062 ± 0.0124 µM.

For `CC(C)OC(=O)[C@H](C)N[P@](=O)(CO[C@H](C)Cn1cnc2c(N)ncnc21)Oc1ccccc1` [tenofovir alafenamide], in data set [8], the “Reported intracellular uptake, free tenofovir” value was 67 µM and the “Reported intracellular uptake, prodrug” value is 0.9 µM.

Consider `CCN(C[C@H]1O[C@@H](n2cc(C#Cc3ccc(C(=O)O)cc3)c3c(N)ncnc32)[C@H](O)[C@@H]1O)S(=O)(=O)c1ccc(OC)c(C#N)c1` [Compound 12p], for which the CC50 at 3 days in “in vitro [2]” and in the data set “in vitro [3]” was more than 100 µM throughout. In addition, the concentration for a half-maximal effect (EC50) in the data set with SARS-CoV-2 [4] and in the data set with SARS-CoV-2 [5] was more than 100 µM throughout. Moreover, in data set [1], the half-maximal inhibitory concentration (IC50) is 0.084 ± 0.0094 µM.

With `CCN(C[C@H]1O[C@@H](n2cnc3c(N)ncnc32)[C@H](O)[C@@H]1O)S(=O)(=O)c1ccc(OC)c(C#N)c1` [Compound 3a, reference compound], the CC50 at 3 days in the data set “in vitro [2]” and in “in vitro [3]” was more than 100 µM in each case. In addition, the concentration for a half-maximal effect (EC50) in the data set with SARS-CoV-2 [4] and with SARS-CoV-2 [5] was more than 100 µM throughout. In data set [1], this compound displayed a half-maximal inhibitory concentration (IC50) of 0.195 ± 0.0253 µM.

`CCN(C[C@H]1O[C@@H](n2cc(C#Cc3cnc(O)nc3)c3c(N)ncnc32)[C@H](O)[C@@H]1O)S(=O)(=O)c1ccc(OC)c(C#N)c1` [Compound 12g]: the CC50 at 3 days in “in vitro [2]” and in the data set “in vitro [3]” was more than 100 µM in each case. Further, the 50% effective concentration (EC50) in the data set on SARS-CoV-2 [4] and in the data set with SARS-CoV-2 [5] was more than 100 µM in each case. The compound further yielded a half-inhibitory concentration (IC50) in data set [1] of 0.075 ± 0.0083 µM.

On to `CCN(C[C@H]1O[C@@H](n2cc(C#Cc3ncc[nH]3)c3c(N)ncnc32)[C@H](O)[C@@H]1O)S(=O)(=O)c1ccc(OC)c(C#N)c1` [Compound 12b], for which the CC50 at 3 days in “in vitro [2]” and in “in vitro [3]” was more than 100 µM throughout. Besides, the 50% effective concentration (EC50) in the data set with SARS-CoV-2 [4] and in the data set on SARS-CoV-2 [5] was more than 100 µM throughout. For the same compound, the IC50 in data set [1] worked out at 0.034 ± 0.0049 µM.

With `CCN(C[C@H]1O[C@@H](n2cc(C#Cc3cccc4ccccc34)c3c(N)ncnc32)[C@H](O)[C@@H]1O)S(=O)(=O)c1ccc(OC)c(C#N)c1` [Compound 12d], the CC50 at 3 days in the data set “in vitro [2]” and in “in vitro [3]” was more than 100 µM throughout. In addition, the 50% effective concentration (EC50) in the data set on SARS-CoV-2 [4] and with SARS-CoV-2 [5] was more than 100 µM each time. In data set [1], the IC50 stood at 0.261 ± 0.0516 µM.
